Results taken from patent US20120077737A1, “HEPATITIS C INHIBITOR COMPOUNDS” (priority 2009, published 2012).
Like-named read-outs stand apart in the source and are kept apart here.

Legend:
[1] = tested on: HCVPV1b subgenomic replicon (wild type 1b); test: HCV replicon RNA replication assay, wild type 1b; format: cell-based, HCV genotype 1b (Con-1), Huh-7 cells; conditions: Hepatitis C virus, read-out: WT 1b Ec50
[2] = tested on: HCV genotype 1a subgenomic replicon with NS3 resistance mutation R155K; test: HCV replicon RNA replication assay, R155K 1a; format: cell-based, HCV genotype 1a (strain H77), Huh-7 cells; conditions: Hepatitis C virus, read-out: R155K 1a Ec50 (nM)
[3] = tested on: HCV genotype 1a subgenomic replicon with NS3 resistance mutation D168V; test: HCV replicon RNA replication assay, D168V 1a; format: cell-based, HCV genotype 1a (strain H77), Huh-7 cells; conditions: Hepatitis C virus, read-out: D168V 1a Ec50 (nM)
[4] = tested on: HCVPV1a subgenomic replicon (wild type 1a); test: HCV replicon RNA replication assay, wild type 1a; format: cell-based, HCV genotype 1a (strain H77), Huh-7 cells; conditions: Hepatitis C virus, read-out: WT 1a Ec50
[5] = tested on: HCV genotype 1b subgenomic replicon with NS3 resistance mutation D168V; test: HCV replicon RNA replication assay, D168V 1b; format: cell-based, HCV genotype 1b (Con-1), Huh-7 cells; conditions: Hepatitis C virus, read-out: D168V 1b Ec50 (nM)
[6] = Table 1, luciferase replicon, Huh-7, 72 h
[7] = Table 2, clinical comparators, wildtype genotype 1b
[8] = Table 2, clinical comparators, wildtype genotype 1a

SMILES | EC50 [1, 6] | EC50 ([2]; Huh-7, 72 h) | EC50 ([3]; Huh-7, 72 h) | EC50 [4, 6] | EC50 ([5]; Huh-7, 72 h) | EC50 [1, 7] | EC50 [3] | EC50 [4, 8] | EC50 [2] | EC50 [5]
COc1ccc2c(O[C@@H]3C[C@H]4C(=O)N[C@]5(C(=O)NS(=O)(=O)C6(C)CC6)C[C@H]5/C=C\CCCCC[C@H](NC(=O)c5cnn(C)n5)C(=O)N4C3)cc(OC(C)C)nc2c1C [Compound 1006, (2R,6S,12Z,13aS,14aR,16aS)-2-{[7-methoxy-8-methyl-2-(propan-2-yloxy)quinolin-4-yl]oxy}-N-[(1-methylcyclopropyl)sulfonyl]-6-{[(2-methyl-2H-1,2,3-triazol-4-yl)carbonyl]amino}-5,16-dioxo-1,2,3,6,7,8,9,10,11,13a,14,15,16,16a-tetradecahydrocyclopropa[e]pyrrolo[1,2-a][1,4]diazacyclopentadecine-14a(5H)-carboxamide] | 0.18 nM | 2.2 nM | 9.6 nM | 0.19 nM | 0.17 nM | – | – | – | – | –
COc1ccc2c(O[C@@H]3C[C@H]4C(=O)N[C@]5(C(=O)NS(=O)(=O)C6(C)CC6)C[C@H]5/C=C\CCCCC[C@H](NC(=O)c5ccn(CC(F)(F)F)n5)C(=O)N4C3)cc(OC(C)C)nc2c1C [Compound 1005, (2R,6S,12Z,13aS,14aR,16aS)-2-{[7-methoxy-8-methyl-2-(propan-2-yloxy)quinolin-4-yl]oxy}-N-[(1-methylcyclopropyl)sulfonyl]-5,16-dioxo-6-({[1-(2,2,2-trifluoroethyl)-1H-pyrazol-3-yl]carbonyl}amino)-1,2,3,6,7,8,9,10,11,13a,14,15,16,16a-tetradecahydrocyclopropa[e]pyrrolo[1,2-a][1,4]diazacyclopentadecine-14a(5H)-carboxamide] | 0.16 nM | 0.85 nM | 1.4 nM | 0.18 nM | 0.17 nM | – | – | – | – | –
CC[C@@H]1C[C@]1(NC(=O)[C@@H]1C[C@@H]2CN1C(=O)[C@H](C(C)(C)C)NC(=O)OCC(C)(C)CCCCc1cccc3c1CN(C3)C(=O)O2)C(=O)NS(=O)(=O)C1CC1 [reference compound] | – | – | – | – | – | 1.2 nM | 3900 nM | 0.4 nM | – | –
COc1ccc2c(O[C@@H]3C[C@H]4C(=O)N[C@]5(C(=O)NS(=O)(=O)C6(C)CC6)C[C@H]5/C=C\CCCCC[C@H](NC(=O)c5ccn(C)n5)C(=O)N4C3)cc(OC(C)C)nc2c1C [Compound 1007, (2R,6S,12Z,13aS,14aR,16aS)-2-{[7-methoxy-8-methyl-2-(propan-2-yloxy)quinolin-4-yl]oxy}-N-[(1-methylcyclopropyl)sulfonyl]-6-{[(1-methyl-1H-pyrazol-3-yl)carbonyl]amino}-5,16-dioxo-1,2,3,6,7,8,9,10,11,13a,14,15,16,16a-tetradecahydrocyclopropa[e]pyrrolo[1,2-a][1,4]diazacyclopentadecine-14a(5H)-carboxamide] | 0.2 nM | 1.7 nM | 4.5 nM | 0.25 nM | 0.18 nM | – | – | – | – | –
COc1c(F)ccc2c(O[C@@H]3C[C@H]4C(=O)N[C@]5(C(=O)NS(=O)(=O)C6(C)CC6)C[C@H]5/C=C\CCCCC[C@H](NC(=O)c5ccn(C(F)F)n5)C(=O)N4C3)cc(OC(C)C)nc12 [Compound 1027, (2R,6S,12Z,13aS,14aR,16aS)-6-({[1-(difluoromethyl)-1H-pyrazol-3-yl]carbonyl}amino)-2-{[7-fluoro-8-methoxy-2-(propan-2-yloxy)quinolin-4-yl]oxy}-N-[(1-methylcyclopropyl)sulfonyl]-5,16-dioxo-1,2,3,6,7,8,9,10,11,13a,14,15,16,16a-tetradecahydrocyclopropa[e]pyrrolo[1,2-a][1,4]diazacyclopentadecine-14a(5H)-carboxamide] | 0.33 nM | 4.7 nM | 2.2 nM | 0.47 nM | 0.39 nM | – | – | – | – | –
Cc1c(Cl)ccc2c(O[C@@H]3C[C@H]4C(=O)N[C@]5(C(=O)NS(=O)(=O)C6(C)CC6)C[C@H]5/C=C\CCCCC[C@H](NC(=O)c5ccn(C)n5)C(=O)N4C3)cc(OC(C)C)nc12 [Compound 1003, (2R,6S,12Z,13aS,14aR,16aS)-2-{[7-chloro-8-methyl-2-(propan-2-yloxy)quinolin-4-yl]oxy}-N-[(1-methylcyclopropyl)sulfonyl]-6-{[(1-methyl-1H-pyrazol-3-yl)carbonyl]amino}-5,16-dioxo-1,2,3,6,7,8,9,10,11,13a,14,15,16,16a-tetradecahydrocyclopropa[e]pyrrolo[1,2-a][1,4]diazacyclopentadecine-14a(5H)-carboxamide] | 0.21 nM | 7.7 nM | 6.9 nM | 0.24 nM | 0.12 nM | – | – | – | – | –
COc1ccc2c(O[C@@H]3C[C@H]4C(=O)N[C@]5(C(=O)NS(=O)(=O)C6(C)CC6)C[C@H]5/C=C\CCCCC[C@H](NC(=O)c5cnn(CC(F)F)n5)C(=O)N4C3)cc(OC(C)C)nc2c1C [Compound 1010, (2R,6S,12Z,13aS,14aR,16aS)-6-({[2-(2,2-difluoroethyl)-2H-1,2,3-triazol-4-yl]carbonyl}amino)-2-{[7-methoxy-8-methyl-2-(propan-2-yloxy)quinolin-4-yl]oxy}-N-[(1-methylcyclopropyl)sulfonyl]-5,16-dioxo-1,2,3,6,7,8,9,10,11,13a,14,15,16,16a-tetradecahydrocyclopropa[e]pyrrolo[1,2-a][1,4]diazacyclopentadecine-14a(5H)-carboxamide] | 0.37 nM | 4.6 nM | 5.6 nM | 0.3 nM | 0.26 nM | – | – | – | – | –
CNC(=O)Cn1ccc(C(=O)N[C@H]2CCCCC/C=C\[C@@H]3C[C@@]3(C(=O)NS(=O)(=O)C3(C)CC3)NC(=O)[C@@H]3C[C@@H](Oc4cc(OC(C)C)nc5c(C)c(OC)ccc45)CN3C2=O)n1 [Compound 1019, (2R,6S,12Z,13aS,14aR,16aS)-2-{[7-methoxy-8-methyl-2-(propan-2-yloxy)quinolin-4-yl]oxy}-6-[({1-[2-(methylamino)-2-oxoethyl]-1H-pyrazol-3-yl}carbonyl)amino]-N-[(1-methylcyclopropyl)sulfonyl]-5,16-dioxo-1,2,3,6,7,8,9,10,11,13a,14,15,16,16a-tetradecahydrocyclopropa[e]pyrrolo[1,2-a][1,4]diazacyclopentadecine-14a(5H)-carboxamide] | 1.5 nM | 1.6 nM | 5.4 nM | 2 nM | 1.8 nM | – | – | – | – | –
CC(C)(C)OC(=O)N[C@H]1CCCCC/C=C\[C@@H]2C[C@@]2(C(=O)NS(=O)(=O)C2CC2)NC(=O)[C@@H]2C[C@@H](OC(=O)N3Cc4cccc(F)c4C3)CN2C1=O [reference compound] | – | – | – | – | – | 5.4 nM | 180 nM | 2.1 nM | 690 nM | 120 nM
COc1ccc2c(O[C@@H]3C[C@H]4C(=O)N[C@]5(C(=O)NS(=O)(=O)C6(C)CC6)C[C@H]5/C=C\CCCCC[C@H](NC(=O)c5ccc(C(C)(C)O)s5)C(=O)N4C3)cc(OC(C)C)nc2c1C [Compound 1020, (2R,6S,12Z,13aS,14aR,16aS)-6-({[5-(2-hydroxypropan-2-yl)thiophen-2-yl]carbonyl}amino)-2-{[7-methoxy-8-methyl-2-(propan-2-yloxy)quinolin-4-yl]oxy}-N-[(1-methylcyclopropyl)sulfonyl]-5,16-dioxo-1,2,3,6,7,8,9,10,11,13a,14,15,16,16a-tetradecahydrocyclopropa[e]pyrrolo[1,2-a][1,4]diazacyclopentadecine-14a(5H)-carboxamide] | 0.66 nM | 2.4 nM | 3.7 nM | 0.86 nM | 0.39 nM | – | – | – | – | –
COc1ccc2c(O[C@@H]3C[C@H]4C(=O)N[C@]5(C(=O)NS(=O)(=O)C6(C)CC6)C[C@H]5/C=C\CCCCC[C@H](NC(=O)c5ccn(C)n5)C(=O)N4C3)cc(OCC(F)(F)F)nc2c1C [Compound 1029, (2R,6S,12Z,13aS,14aR,16aS)-2-{[7-methoxy-8-methyl-2-(2,2,2-trifluoroethoxy)quinolin-4-yl]oxy}-N-[(1-methylcyclopropyl)sulfonyl]-6-{[(1-methyl-1H-pyrazol-3-yl)carbonyl]amino}-5,16-dioxo-1,2,3,6,7,8,9,10,11,13a,14,15,16,16a-tetradecahydrocyclopropa[e]pyrrolo[1,2-a][1,4]diazacyclopentadecine-14a(5H)-carboxamide] | – | 1.5 nM | 9.5 nM | – | 0.25 nM | – | – | – | – | –
COc1ccc2c(O[C@@H]3C[C@H]4C(=O)N[C@]5(C(=O)NS(=O)(=O)C6CC6)C[C@H]5/C=C\CCCCC[C@H](NC(=O)c5ccn(CC(F)(F)F)n5)C(=O)N4C3)cc(OC(C)C)nc2c1C [Compound 1012, (2R,6S,12Z,13aS,14aR,16aS)-N-(cyclopropylsulfonyl)-2-{[7-methoxy-8-methyl-2-(propan-2-yloxy)quinolin-4-yl]oxy}-5,16-dioxo-6-({[1-(2,2,2-trifluoroethyl)-1H-pyrazol-3-yl]carbonyl}amino)-1,2,3,6,7,8,9,10,11,13a,14,15,16,16a-tetradecahydrocyclopropa[e]pyrrolo[1,2-a][1,4]diazacyclopentadecine-14a(5H)-carboxamide] | 0.24 nM | – | 1.9 nM | 0.29 nM | 0.31 nM | – | – | – | – | –
